In US20080220103A1, “METHOD FOR TREATING/CONTROLLING/KILLING FUNGI AND BACTERIA ON LIVING ANIMALS” (priority 2005, published 2008):
Values after ≈ are worked out from the molar mass of the structure shown.

Columns and labels:
All Yeasts = experiment: Minimum fungicidal concentration, yeasts; assay type: cell-based
Description: Minimum fungicidal concentration (MFC): The minimum fungicidal concentrations of various agents were determined using the technique described by Canton et al. (Antimicrob Agents Chemother. 2004 8:2477-82). In that method, fungal conidia were collected following growth on potato dextrose agar (PDA) plates and were used to inoculate 96-well plates containing different concentrations of agents. Following incubation at 35° C. for 4 days (for dermatophytes) or 24 hours (for yeast), wells showing no visible growth were cultured to determine the MFC (defined as the lowest concentration of a given agent that kills>99.999% of fungal conidia or spores). The MFC value represents the level of the agent at which spores or conidia were killed.

T. rubrum [1] = experiment: Pre-treatment insole assay, combination (FIG. 10); assay type: cell-based, Trichophyton rubrum; settings: 0.01% synthetic agent, 3% tea tree oil, singly or combined
Description: Pre-treatment assays: To evaluate the ability of different agents to prevent fungal contaminations of shoes, PDA plates were prepared on which 10^4 T. mentagrophytes cells were evenly spread. Next, discs from insoles and leather were treated as follows (with either agent or control vehicle): discs were pretreated with a single spray, spraying for 15 second or 30 second. Other discs were immersed in agent or vehicle for 30 min. Following this treatment, discs were air-dried by placing them in a Petri plate for 1 min. These dried discs were then placed (drug side down) on the seeded PDA plates. Plates were then incubated for 4 days at 30° C. Following incubation, fungal growth was recorded. […] Diameter of the clearance zone (CZD) was measured. The relative activity of different agents and control were assessed. […] To determine whether using combination of synthetic compounds and essential oils will allow the use of low concentrations of synthetic drugs, we tested the ability of combination of 0.01% tolnaftate and 3% tea tree oil to prevent shoe contamination using the pre- and post-treatment insole bioassays described above.

T. mentagrophytes [2] = experiment: Post-treatment leather biopsy disc assay; assay type: cell-based, Trichophyton mentagrophytes
Source text: Based on the above experiments, our disc biopsy assay employed Dr. Scholl's insole and leather discs as the optimal substrates representing materials used in shoes, and 30% isopropanol as the optimal vehicle to dissolve the agents to be tested in pre-treatment and post-treatment studies.
Two types of disc biopsy assays were used to evaluate the ability of different synthetic and natural substances to disinfect shoe material: (a) Pre-treatment assay: where discs were pre-treated with antifungals first and then infected with T. mentagrophytes, and (b) Post-treatment assay: where discs were first infected with T. mentagrophytes, then treated with drugs. These assays reveal the ability of different agents to prevent and treat shoe fungal contamination, respectively.
Post-treatment assays: To evaluate the ability of various agents to treat infected shoes, PDA plates were prepared on which […] T. mentagrophytes cells were evenly spread on their surface. Next, untreated biopsy discs were placed on these PDA plates and incubated for 4 days at 30° C. Incubating the biopsy discs in this manner allowed the fungi to invade the discs. Infected discs were picked and post-treated with different agents by spraying. Post-treated discs were allowed to air dry and were then placed on fresh, uninoculated PDA plates and incubated for 4 additional days at 30° C. Incubation of the discs under these conditions allows any fungi that are not killed by the sprayed agent to grow. In other words, agents that are effective in the treatment of shoe material will not show any fungal growth around the disc biopsy (FIG. 1C). In contrast, discs treated with ineffective agents will show fungal growth emanating from them (FIG. 1D). Diameter of the growth zone (GZD) was determined as a measure of the activity of the agent tested.

T. mentagrophytes [3] = experiment: Pre-treatment insole biopsy disc assay; assay type: cell-based, Trichophyton mentagrophytes
Source text: (§1) Based on the above experiments, our disc biopsy assay employed Dr. Scholl's insole and leather discs as the optimal substrates representing materials used in shoes, and 30% isopropanol as the optimal vehicle to dissolve the agents to be tested in pre-treatment and post-treatment studies. Two types of disc biopsy assays were used to evaluate the ability of different synthetic and natural substances to disinfect shoe material: (a) Pre-treatment assay: where discs were pre-treated with antifungals first and then infected with T. mentagrophytes, and (b) Post-treatment assay: where discs were first infected with T. mentagrophytes, then treated with drugs. These assays reveal the ability of different agents to prevent and treat shoe fungal contamination, respectively. Pre-treatment assays: To evaluate the ability of different agents to prevent fungal contaminations of shoes, PDA plates were prepared on which 10^4 T. mentagrophytes cells were evenly spread. Next, discs from insoles and leather were treated as follows (with either agent or control vehicle): discs were pretreated with a single spray, spraying for 15 second or 30 second. Other discs were immersed in agent or vehicle for 30 min. Following this treatment, discs were air-dried by placing them in a Petri plate for 1 min. These dried discs were then placed (drug side down) on the seeded PDA plates. Plates were then incubated for 4 days at 30° C. Following incubation, fungal growth was recorded. […] Diameter of the clearance zone (CZD) was measured. The relative activity of different agents and control were assessed.

[4] = tested on: terbinafine-resistant T. rubrum; experiment: MIC against terbinafine-resistant isolates; assay type: cell-based, Trichophyton rubrum
Description: Minimum Inhibitory Concentration (MIC): Minimum inhibitory concentrations of synthetic and semisynthetic and natural products against dermatophytes were determined using a modification of the Clinical Laboratory Standards Institute (CLSI, formerly National Committee of Clinical Laboratory Standards, NCCLS) M38A standard method for dermatophytes, while MIC of these agents against Candida species were determined using the CLSI M27-A2 methodology. The method used to determine the MIC against bacteria was based on the CLSI document M7-A7.
For dermatophytes, serial dilutions of terbinafine, tolnaftate were prepared in a range of 0.004-2 μg/ml, while for miconazole concentrations ranged between 0.015-8 μg/ml. Finally, for essential oils, the concentrations tested were between 0.03-16 μg/ml. The only exception was tea tree oil where dilutions were prepared in a range of 0.0078-4 μg/ml. The MIC was read at 4 days post inoculation and defined as the lowest concentration of an agent to inhibit 80% of fungal growth as compared to the growth control (Table 2).

T. mentagrophytes [5] = experiment: Pre-treatment leather biopsy disc assay; assay type: cell-based, Trichophyton mentagrophytes
Source text: as §1

T. rubrum [6] = experiment: Post-treatment insole assay, combination (FIG. 10); assay type: cell-based, Trichophyton rubrum; settings: 0.01% tolnaftate, 3% tea tree oil, singly or combined
[7] = Trichophyton rubrum, terbinafine-resistant T. rubrum, n = 11

Q: Which MFC Range (All Yeasts) does the source give for `Clc1ccc(COC(Cn2ccnc2)c2ccc(Cl)cc2Cl)c(Cl)c1` (centres unmarked) [Miconazole, miconazole] here?
A: The MFC Range was 0.5 to 2 µg/mL.

Q: Which “effect of pretreatment of insoles on fungal growth” value (T. rubrum [1]) does the source give for `CN(C/C=C/C#CC(C)(C)C)Cc1cccc2ccccc12` [Terbinafine, terbinafine] here?
A: Its value is “did not result in any inhibition of fungal growth”.

Q: What about the “Leather Post-contamination Treatment (GZD)” value (T. mentagrophytes [2]; 1% spray in 30% isopropanol) of the same molecule?
A: The value was 0 mm.

Q: And the “Insoles Pretreatment (CZD, clearance zone diameter)” value (T. mentagrophytes [3]; 1% spray in 30% isopropanol)?
A: Its value is 85 mm.

Q: And the MIC ([4]; Trichophyton rubrum, T. rubrum MRL 666)?
A: Its MIC is 16 µg/mL (≈ 54.9 µM).

Q: And the MIC ([4]; Trichophyton rubrum, T. rubrum MRL 670)?
A: The MIC was 16 µg/mL (≈ 54.9 µM).

Q: What about the MIC ([4]; Trichophyton rubrum, T. rubrum MRL 671) of the same molecule?
A: The MIC was 4 µg/mL (≈ 13.7 µM).

Q: And the MIC ([4]; Trichophyton rubrum, T. rubrum MRL 1386)?
A: The MIC was 4 µg/mL (≈ 13.7 µM).

Q: What about the MIC ([4]; Trichophyton rubrum, T. rubrum MRL 1806) of the same molecule?
A: Its MIC is 4 µg/mL (≈ 13.7 µM).

Q: And the MIC ([4]; Trichophyton rubrum, T. rubrum MRL 1807)?
A: Its MIC is 4 µg/mL (≈ 13.7 µM).

Q: And the MIC ([4]; Trichophyton rubrum, T. rubrum MRL 1808)?
A: Its MIC is 16 µg/mL (≈ 54.9 µM).

Q: And the MIC ([4]; Trichophyton rubrum, T. rubrum MRL 1809)?
A: Its MIC is 16 µg/mL (≈ 54.9 µM).

Q: What about the MIC ([4]; Trichophyton rubrum, T. rubrum MRL 1810) of the same molecule?
A: Its MIC is 4 µg/mL (≈ 13.7 µM).

Q: What about the MIC ([4]; Trichophyton rubrum, T. rubrum MRL 2499) of the same molecule?
A: Its MIC is 4 µg/mL (≈ 13.7 µM).

Q: And the MIC ([4]; Trichophyton rubrum, T. rubrum MRL 2727)?
A: Its MIC is 2 µg/mL (≈ 6.86 µM).

Q: And the MIC50 [4, 7]?
A: The MIC50 was 4 µg/mL (≈ 13.7 µM).

Q: What about the MIC90 [4, 7] of the same molecule?
A: The MIC90 was 16 µg/mL (≈ 54.9 µM).

Q: And the “MIC Range” value ([4]; terbinafine-resistant T. rubrum, n = 11)?
A: Its value is 2 to 16 µg/mL.

Q: What about the “Leather Pretreatment (CZD)” value (T. mentagrophytes [5]; 1% spray in 30% isopropanol) of the same molecule?
A: The value was 85 mm.

Q: What does the source list for `Cc1cccc(N(C)C(=S)Oc2ccc3ccccc3c2)c1` [Tolnaftate, tolnaftate]?
A: effect of post-contamination treatment of insoles on fungal growth (T. rubrum [6]): did not prevent growth of fungus; Leather Post-contamination Treatment (GZD) (T. mentagrophytes [2]; 1% spray in 30% isopropanol): 11 mm; Leather Post-contamination Treatment (GZD) (T. mentagrophytes [2]; 2% spray in 30% isopropanol): 11 mm; Insoles Pretreatment (CZD, clearance zone diameter) (T. mentagrophytes [3]; 1% spray in 30% isopropanol): 25 mm; Insoles Pretreatment (CZD, clearance zone diameter) (T. mentagrophytes [3]; 2% spray in 30% isopropanol): 10 mm; Insoles Pretreatment (CZD, clearance zone diameter) (T. mentagrophytes [3]; 2% spray in 30% isopropanol, listed as tolnaftate): 11 mm; preventive activity against dermatophytes infecting shoes (T. mentagrophytes [3]; acetone as vehicle): potent preventive activity; Leather Pretreatment (CZD) (T. mentagrophytes [5]; 1% spray in 30% isopropanol): 18 mm; Leather Pretreatment (CZD) (T. mentagrophytes [5]; 1% spray in 30% isopropanol, listed as tolnaftate): 16 mm; Leather Pretreatment (CZD) (T. mentagrophytes [5]; 2% spray in 30% isopropanol): 6 mm
